In the oligonucleotide strings, read from the 5' end, every base follows the letter of its sugar. An asterisk marks phosphorothioate; unmarked linkages are phosphodiester. Other units and linkages are bracketed, terminal groups are in braces. A string of capitals states the bases alone. e = 2'-O-(2-methoxyethyl) (MOE); [5mC] = 5-methylcytosine; d = 2'-deoxy (DNA)

Twelve substances from patent US20120083522A1, “MODULATION OF INFLAMMATORY RESPONSES BY FACTOR XI” (Isis Pharmaceuitcals, inc., priority 2009, published 2012) can be followed below.

In one data set the test system is mouse Factor XI mRNA. In words: Cross-reactive antisense inhibition in primary mouse hepatocytes, 100 nM (Example 9). As to conditions: approx. 24 h, percent inhibition relative to untreated control cells. The data set is classed as cell-based. How it is done: Antisense oligonucleotides targeted to a murine Factor XI nucleic acid were tested for their effects on Factor XI mRNA in vitro. Cultured primary mouse hepatocytes at a density of 10,000 cells per well were treated with 100 nM antisense oligonucleotide. After a treatment period of approximately 24 hours, RNA was isolated from the cells and mouse Factor XI mRNA levels were measured by quantitative real-time PCR. Factor XI mRNA levels were adjusted according to total RNA content, as measured by RIBOGREEN®. Results are presented as percent inhibition of Factor XI, relative to untreated control cells.
The chimeric antisense oligonucleotides in Tables 16 were designed as 5-10-5 MOE gapmers. The gapmers are 20 nucleotides in length, wherein the central gap segment is comprised of 10 2′-deoxynucleotides and is flanked on both sides (in the 5′ and 3′ directions) by wings comprising 5 nucleotides each. Each nucleotide in the 5′ wing segment and each nucleotide in the 3′ wing segment has a 2′-MOE modification. The internucleoside linkages throughout each gapmer are phosphorothioate (P═S) linkages. All cytidine residues throughout each gapmer are 5-methylcytidines. “Mouse target start site” indicates the 5′-most nucleotide to which the gapmer is targeted. “Mouse target stop site” indicates the 3′-most nucleotide to which the gapmer is targeted. All the mouse oligonucleotides listed show cross-reactivity between the mouse Factor XI mRNA (GENBANK Accession No. NM_028066.1), incorporated herein as SEQ ID NO: 6 and the human Factor XI mRNA (GENBANK Accession No. NM_000128.3), incorporated herein as SEQ ID NO: 1. “Human Target Start Site” indicates the 5′-most nucleotide in the human mRNA (GENBANK Accession No. NM_000128.3) to which the antisense oligonucleotide is targeted. “Human Target Stop Site” indicates the 3′-most nucleotide in the human mRNA (GENBANK Accession No. NM_000128.3) to which the antisense oligonucleotide is targeted. “Number of mismatches” indicates the mismatches between the mouse oligonucleotide and the human mRNA sequence.

Data set [1] can be described thus: Tolerability in Sprague-Dawley rats: kidney function (Example 23). The data set is classed as in vivo. As to conditions: for BUN: plasma; for Total urine protein / Urine protein/creatinine ratio: total urine samples.
A short description of data set [2]: Tolerability in CD1 mice: body and organ weights (Example 21). The data set is classed as in vivo. As to conditions: 50 mg/kg s.c. twice per week for 6 weeks; for Body weight: increase over PBS control weight before start of treatment; for Kidney weight / Liver weight / Spleen weight: percentage of the body weight.
Procedure: Body weight was measured at the onset of the study and subsequently twice per week. The body weights of the mice are presented in Table 87 and are expressed increase in grams over the PBS control weight taken before the start of treatment. Liver, spleen, and kidney weights were measured at the end of the study, and are also presented in Table 87 as percentage of the body weight.
A short description of data set [3]: Tolerability in Sprague-Dawley rats: hematology assays (Example 23). The data set is classed as in vivo. Set-up: RBC / WBC / Neutrophil / Lymphocyte / Platelets: unit not given here. As to conditions: blood.
Data set [4] can be described thus: Tolerability in CD1 mice: liver function (Example 21). As to conditions: plasma, 50 mg/kg s.c. twice per week for 6 weeks. On the set-up: Albumin: unit not given here. The data set is classed as in vivo.
Data set [5] can be described thus: Tolerability in CD1 mice: hematology assays (Example 21). As to conditions: 50 mg/kg s.c. twice per week for 6 weeks. The data set is classed as in vivo.
The nature of data set [6]: Tolerability in Sprague-Dawley rats: liver function (Example 23). The data set is classed as in vivo. Set-up: Albumin: unit not given here. As to conditions: plasma, 50 mg/kg s.c. twice per week for 6 weeks.
The nature of data set [7]: Tolerability in Sprague-Dawley rats: body and organ weights (Example 23). The data set is classed as in vivo. As to conditions: 50 mg/kg s.c. twice per week for 6 weeks; for Body weight: increase over PBS control weight before start of treatment; for Kidney weight / Liver weight / Spleen weight: percentage of the body weight.
Data set [8] in a line: Tolerability in CD1 mice: kidney function (Example 21). As to conditions: plasma, 50 mg/kg s.c. twice per week for 6 weeks. The data set is classed as in vivo.

With “404050 (antisense eT*eG*e[5mC]*eT*eT*dG*dA*dA*dG*dG*dA*dA*dT*dA*dT*e[5mC]*e[5mC]*eA*eG*eA) [compound 404050]”, the “Inhibition of mouse Factor XI mRNA levels (column headed SEQ ID No.)” value (“Inhibition … (column headed SEQ ID No.)” for short) in the data set on mouse Factor XI mRNA was found to be 82.

With “404054 (antisense eT*eA*eG*eT*eT*d[5mC]*dA*dT*dG*d[5mC]*d[5mC]*d[5mC]*dT*dT*d[5mC]*eA*eT*eG*eT*e[5mC]) [compound 404054]”, the “Inhibition … (column headed SEQ ID No.)” value in the data set with mouse Factor XI mRNA is on record as 45.

Turning to “404055 (antisense eT*eG*eT*eT*eA*dT*dA*dG*dT*dT*d[5mC]*dA*dT*dG*d[5mC]*e[5mC]*e[5mC]*eT*eT*e[5mC]) [compound 404055]”, the “Inhibition … (column headed SEQ ID No.)” value in the data set on mouse Factor XI mRNA was 27.

As for “404066 (antisense eA*eA*eT*eG*eT*d[5mC]*d[5mC]*d[5mC]*dT*dG*dA*dT*dA*d[5mC]*dA*eA*eG*e[5mC]*e[5mC]*eA) [compound 404066]”, the “Inhibition … (column headed SEQ ID No.)” value in the data set with mouse Factor XI mRNA was determined as 37.

For “404067 (antisense eG*eG*eG*eA*eA*dA*dA*dT*dG*dT*d[5mC]*d[5mC]*d[5mC]*dT*dG*eA*eT*eA*e[5mC]*eA) [compound 404067]”, in the data set with mouse Factor XI mRNA, the “Inhibition … (column headed SEQ ID No.)” value was 39.

For “404083 (antisense eT*eG*eT*eG*e[5mC]*dA*dG*dA*dG*dT*d[5mC]*dA*d[5mC]*d[5mC]*dT*eG*e[5mC]*e[5mC]*eA*eT) [compound 404083]”, the “Inhibition … (column headed SEQ ID No.)” value in the data set on mouse Factor XI mRNA amounted to 47.

Consider “404087 (antisense eT*eT*e[5mC]*eT*eT*dG*dA*dA*d[5mC]*d[5mC]*d[5mC]*dT*dG*dA*dA*eG*eA*eA*eA*eG) [compound 404087]”, for which the “Inhibition … (column headed SEQ ID No.)” value with mouse Factor XI mRNA was found to be 29.

For the substance “404089 (antisense eT*eG*eA*eA*eT*dT*dA*dT*d[5mC]*dA*dT*dT*dT*d[5mC]*dT*eT*eG*eA*eA*e[5mC]) [compound 404089]”, the “Inhibition … (column headed SEQ ID No.)” value with mouse Factor XI mRNA was found to be 6.

As to “404090 (antisense eT*eG*eA*eT*e[5mC]*dA*dT*dG*dA*dA*dT*dT*dA*dT*d[5mC]*eA*eT*eT*eT*e[5mC]) [compound 404090]”, in the data set on mouse Factor XI mRNA, the “Inhibition … (column headed SEQ ID No.)” value worked out at 42.

Turning to “ACAGTTTCTGGCAGGCCTCG (antisense; all C 5-methyl, all phosphorothioate, sugars by position not given here; MOE gapmer, 5-10-5) [ISIS 412223, 5-10-5 MOE gapmer]”, in data set [1], the creatinine stood at 46 mg/dL, the BUN is 24 mg/dL, the Total urine protein amounted to 224 mg/dL and the Urine protein/creatinine ratio came to 4.6. Also, in data set [2], the Body weight is on record as 12 g, the Kidney weight is 1.5%, the Liver weight came to 6% and the Spleen weight was found to be 0.4%. In data set [3], this substance registered an HCT of 41%, a Hemoglobin of 13.1 g/dL, a Lymphocyte of 16990 and a Neutrophil of 1826. In data set [3], this substance had a Platelets of 567, an RBC of 7.2 and a WBC of 20. In data set [4], the ALT is 60 IU/L, the AST is 125 IU/L, the Albumin was determined as 3.0 and the Bilirubin amounted to 0.20 mg/dL. In [4], this substance showed a Cholesterol of 117 mg/dL. In addition, in [5], the HCT worked out at 48%, the Hemoglobin came out at 15 g/dL, the Lymphocyte is on record as 4599 cells/μL and the Monocytes is 200 cells/μL. In [5], the Neutrophil is 1756 cells/μL, the Platelets is reported as 862 10^3/μL, the RBC is on record as 9 10^6/μL and the WBC is recorded as 7 10^3/μL. Also, in data set [6], the ALT was 85 IU/L, the AST turned out to be 180 IU/L, the Albumin is given as 5 and the Bilirubin came to 0.14 mg/dL. In [7], this substance came in with a Body weight of 126 g, a Kidney weight of 1.0%, a Liver weight of 5% and a Spleen weight of 0.5%. In data set [8], this substance registered a BUN of 28 mg/dL.

Consider “GCAGCGGACGGCATTGGTGC (antisense; all C 5-methyl, all phosphorothioate, sugars by position not given here; MOE gapmer, 5-10-5) [ISIS 412225, 5-10-5 MOE gapmer]”, for which, in data set [1], the creatinine was 58 mg/dL, the BUN is reported as 23 mg/dL, the Total urine protein was found to be 209 mg/dL and the Urine protein/creatinine ratio is listed as 4.0. In data set [2], this substance showed a Body weight of 10 g, a Kidney weight of 1.5%, a Liver weight of 6% and a Spleen weight of 0.4%. Also, in data set [3], the HCT amounted to 42%, the Hemoglobin worked out at 13.4 g/dL, the Lymphocyte was determined as 13204 and the Neutrophil amounted to 1499. In data set [3], this substance showed a Platelets of 673, an RBC of 7.4 and a WBC of 15. Further, in [4], the ALT turned out to be 40 IU/L, the AST was found to be 69 IU/L, the Albumin turned out to be 3.3 and the Bilirubin stood at 0.23 mg/dL. The Cholesterol in data set [4] is given as 128 mg/dL. In [5], the HCT amounted to 50%, the Hemoglobin is 15 g/dL, the Lymphocyte came to 4969 cells/μL and the Monocytes was 293 cells/μL. Besides, in data set [5], the Neutrophil turned out to be 1547 cells/μL, the Platelets is given as 574 10^3/μL, the RBC is recorded as 9 10^6/μL and the WBC is reported as 7 10^3/μL. Besides, in [6], the ALT stood at 48 IU/L, the AST turned out to be 108 IU/L, the Albumin came out at 5 and the Bilirubin was found to be 0.15 mg/dL. In data set [7], this substance showed a Body weight of 184 g, a Kidney weight of 1.0%, a Liver weight of 4% and a Spleen weight of 0.5%. The BUN in data set [8] is reported as 23 mg/dL.

In the case of “GCATTGGTGCACAGTTTCTG (antisense; all C 5-methyl, all phosphorothioate, sugars by position not given here; MOE gapmer, 5-10-5) [ISIS 412224, 5-10-5 MOE gapmer]”, in [1], the creatinine was determined as 44 mg/dL, the BUN was determined as 24 mg/dL, the Total urine protein turned out to be 171 mg/dL and the Urine protein/creatinine ratio came out at 3.8. In data set [2], the Body weight is reported as 10 g, the Kidney weight is given as 1.6%, the Liver weight is recorded as 6% and the Spleen weight is 0.5%. In data set [3], this substance gave an HCT of 42%, a Hemoglobin of 13.4 g/dL, a Lymphocyte of 16807 and a Neutrophil of 1865. In [3], the Platelets was 685, the RBC stood at 7.4 and the WBC stood at 20. For the same substance, in [4], the ALT was 214 IU/L, the AST is reported as 183 IU/L, the Albumin turned out to be 3.4 and the Bilirubin came to 0.19 mg/dL. Also, in data set [4], the Cholesterol was determined as 114 mg/dL. Also, in data set [5], the HCT is listed as 50%, the Hemoglobin is 15 g/dL, the Lymphocyte amounted to 6284 cells/μL and the Monocytes worked out at 195 cells/μL. Besides, in data set [5], the Neutrophil is reported as 2107 cells/μL, the Platelets is 647 10^3/μL, the RBC is reported as 10 10^6/μL and the WBC is reported as 9 10^3/μL. In data set [6], this substance registered an ALT of 84 IU/L, an AST of 132 IU/L, an Albumin of 4 and a Bilirubin of 0.12 mg/dL. Also, in [7], the Body weight is 165 g, the Kidney weight came to 1.0%, the Liver weight was determined as 5% and the Spleen weight was found to be 0.5%. Further, the BUN in data set [8] turned out to be 29 mg/dL.
